# Assay results reported in US9018392B1, “Compounds, compositions and methods for crop enhancement” (Active AgriProducts Inc., priority 2014, dated 2015).
# Experiments:
# Format in all cases: in vivo
# soy bean = assay: Experiment 4 soy bean root growth, greenhouse conditions; details: 40 ppm seed treatment; 10 days
# Procedure: (§1) For the Experiments described below, application of 1,2-dimethyl-4-dimethylaminomethyl-5-hydroxy benzimidazole (referred to herein as INTRINSIC™) was by way of seed treatment. Treated seeds were prepared by mixing 1.0 kg of seed and 2.0 mL of an aqueous solution of INTRINSIC™ comprising 0.1% potassium hydroxide in a ZIPLOC™ bag. Control seeds were prepared by mixing 1.0 kg of seed and 2.0 mL of aqueous 0.1% potassium hydroxide solution in a ZIPLOC™ bag. The seeds and solutions were sufficiently mixed to wet the seeds. The seeds were dried after being wetted. […] Experiment 4 tested the effects of 40 ppm INTRINSIC™ on soy bean root growth under greenhouse conditions.
# wheat [1] = assay: Experiment 2(a) wheat root growth, laboratory conditions, seedling trays; details: 20 ppm and 40 ppm seed treatment; 72 hours; FIG. 2(a)
# Procedure: as §1, with “Experiment 2(a) tested the effects of 20 ppm and 40 ppm INTRINSIC™ on wheat root growth under laboratory conditions. Treated and control seeds were grown in seedling trays lined with moistened tissue. Experiment 2(b)” for “Experiment 4”, “on wheat” for “on soy bean”, “conditions. Experiment 2(c) tested the effects of 40 ppm INTRINSIC™ on wheat root growth under laboratory conditions. Treated and control seeds were grown in agar culture medium. Results at 8 days are shown Figure in FIG. 2(c).” for “conditions.”
# corn = assay: Experiment 5 corn root growth, greenhouse conditions; details: 40 ppm seed treatment; 10 days
# Procedure: as §1, with “Experiment 5” for “Experiment 4”, “on corn” for “on soy bean”
# wheat [2] = assay: Experiment 2(c) wheat root growth, laboratory conditions, agar culture medium; details: 40 ppm seed treatment, 8 days, FIG. 2(c)
# Procedure: as §1, with “Experiment 2(a) tested the effects of 20 ppm and 40 ppm INTRINSIC™ on wheat root growth under laboratory conditions. […] Experiment 2(b)” for “Experiment 4”, “on wheat” for “on soy bean”, “conditions. Experiment 2(c) tested the effects of 40 ppm INTRINSIC™ on wheat root growth under laboratory conditions. Treated and control seeds were grown in agar culture medium. Results at 8 days are shown Figure in FIG. 2(c).” for “conditions.”
# wheat [3] = assay: Experiment 1 wheat seed germination, laboratory conditions, seedling trays; details: 20 ppm and 40 ppm seed treatment
# Procedure: For the Experiments described below, application of 1,2-dimethyl-4-dimethylaminomethyl-5-hydroxy benzimidazole (referred to herein as INTRINSIC™) was by way of seed treatment. Treated seeds were prepared by mixing 1.0 kg of seed and 2.0 mL of an aqueous solution of INTRINSIC™ comprising 0.1% potassium hydroxide in a ZIPLOC™ bag. Control seeds were prepared by mixing 1.0 kg of seed and 2.0 mL of aqueous 0.1% potassium hydroxide solution in a ZIPLOC™ bag. The seeds and solutions were sufficiently mixed to wet the seeds. The seeds were dried after being wetted. […] Experiment 1 tested the effects of 20 ppm and 40 ppm INTRINSIC™ on wheat seed germination under laboratory conditions. Treated and control seeds were grown in seedling trays lined with moistened tissue.
# canola = assay: Experiment 3 canola root growth, greenhouse conditions; details: 40 ppm seed treatment; 10 days
# Procedure: as §1, with “Experiment 3” for “Experiment 4”, “on canola” for “on soy bean”
# wheat [4] = assay: Experiment 9 wheat yield, field test conditions; details: crop maturation (approximately 90 days)
# Procedure: For the Experiments described below, application of 1,2-dimethyl-4-dimethylaminomethyl-5-hydroxy benzimidazole (referred to herein as INTRINSICTM) was by way of seed treatment. Treated seeds were prepared by mixing 1.0 kg of seed and 2.0 mL of an aqueous solution of INTRINSICTM comprising 0.1% potassium hydroxide in a ZIPLOCTM bag. Control seeds were prepared by mixing 1.0 kg of seed and 2.0 mL of aqueous 0.1% potassium hydroxide solution in a ZIPLOCTM bag. The seeds and solutions were sufficiently mixed to wet the seeds. The seeds were dried after being wetted. […] Experiment 9 tested the effects of 40 ppm INTRINSICTM, CRUISER […], and the combination of the two, on wheat yield under field test conditions. CRUISER […] was applied per the manufacturer's recommendations. FIGS. 9(a) and 9(b) display yield results at crop maturation (approximately 90 days), showing greater yield crops from INTRINSICTM-treated seeds (whether alone or in combination with CRUISER […]) compared to crops from control seeds.
smiles,measurement,setting,value
"Cc1nc2c(CN(C)C)c(O)ccc2n1C [INTRINSIC™, 1,2-dimethyl-4-dimethylaminomethyl-5-hydroxy benzimidazole]",foliage size compared to control seedlings,soy bean,larger foliage
same,number of roots compared to control seedlings,soy bean,greater number of roots
same,number of roots compared to control seedlings,wheat [1],greater number of roots
same,root length compared to control seedlings,wheat [1],longer roots
same,shoot length compared to control seedlings,wheat [1],longer shoots
same,foliage size compared to control seedlings,corn,larger foliage
same,number of roots compared to control seedlings,corn,greater number of roots
same,number of roots compared to control seedlings,wheat [2],greater number of roots
same,root length compared to control seedlings,wheat [2],longer roots
same,shoot length compared to control seedlings,wheat [2],longer shoots
same,number of wheat seeds broken open compared to control,wheat [3]; 24 hours,greater number
same,number of roots compared to control seedlings,"wheat [3]; 48 h, 72 h and 96 h",greater number of roots
same,root length compared to control seedlings,"wheat [3]; 48 h, 72 h and 96 h",longer roots
same,shoot length compared to control seedlings,"wheat [3]; 48 h, 72 h and 96 h",longer shoots
same,foliage size compared to control seedlings,canola,larger foliage
same,number of roots compared to control seedlings,canola,greater number of roots
same,root length compared to control seedlings,canola,longer roots
same,wheat yield compared to crops from control seeds,wheat [4]; 40 ppm seed treatment alone,greater yield
same,wheat yield compared to crops from control seeds,wheat [4]; 40 ppm seed treatment in combination with CRUISER MAXX™,greater yield
